According to patent US20220096487A1 (priority 2019, published 2022):
pEC50, pIC50: −log10 of the molar value.

What was measured:
UGT1A1 = UGT1A1 (Homo sapiens, UniProt P22309); experiment: In vitro inhibition of UGT1A1; type: in vitro ADME; conditions: did not inhibit
[1] = target: multidrug resistance protein (MRP)2 (Homo sapiens, UniProt Q92887); experiment: In vitro inhibition of MRP2; type: in vitro ADME; conditions: did not inhibit
[2] = Carcinogenicity studies in rats; conditions: two-year study, doses up to 50 mg/kg, highest dose tested
CYP2B6 [3] = target: CYP2B6 (Homo sapiens, UniProt P20813); experiment: In vitro inhibition of CYP2B6; type: in vitro ADME; conditions: did not inhibit
Sequence of CYP2B6 (Homo sapiens, UniProt P20813) (P20813 whole entry): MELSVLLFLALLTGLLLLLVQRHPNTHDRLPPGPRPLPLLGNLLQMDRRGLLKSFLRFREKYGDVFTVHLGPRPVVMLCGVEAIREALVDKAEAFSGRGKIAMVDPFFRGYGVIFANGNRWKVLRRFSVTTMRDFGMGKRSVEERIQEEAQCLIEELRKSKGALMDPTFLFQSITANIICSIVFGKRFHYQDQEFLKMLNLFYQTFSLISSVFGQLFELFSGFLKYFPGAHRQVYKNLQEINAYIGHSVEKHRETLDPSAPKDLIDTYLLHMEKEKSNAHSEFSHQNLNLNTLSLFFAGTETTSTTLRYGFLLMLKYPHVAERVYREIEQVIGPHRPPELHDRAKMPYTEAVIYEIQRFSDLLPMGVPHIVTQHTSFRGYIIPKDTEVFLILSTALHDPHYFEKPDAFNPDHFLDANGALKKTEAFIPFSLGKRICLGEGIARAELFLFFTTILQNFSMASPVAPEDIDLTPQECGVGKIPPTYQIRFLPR

CYP3A4 = experiment: In vitro induction of CYP3A4; type: in vitro ADME
[4] = Dolutegravir embryo-fetal development study in pregnant rabbits; type: in vivo, rabbit; conditions: oral up to 1,000 mg/kg daily, gestation Days 6 to 18
CYP2C9 = CYP2C9 (Homo sapiens, UniProt P11712); experiment: In vitro inhibition of CYP2C9; type: in vitro ADME; conditions: did not inhibit
Sequence of CYP2C9 (P11712 whole entry): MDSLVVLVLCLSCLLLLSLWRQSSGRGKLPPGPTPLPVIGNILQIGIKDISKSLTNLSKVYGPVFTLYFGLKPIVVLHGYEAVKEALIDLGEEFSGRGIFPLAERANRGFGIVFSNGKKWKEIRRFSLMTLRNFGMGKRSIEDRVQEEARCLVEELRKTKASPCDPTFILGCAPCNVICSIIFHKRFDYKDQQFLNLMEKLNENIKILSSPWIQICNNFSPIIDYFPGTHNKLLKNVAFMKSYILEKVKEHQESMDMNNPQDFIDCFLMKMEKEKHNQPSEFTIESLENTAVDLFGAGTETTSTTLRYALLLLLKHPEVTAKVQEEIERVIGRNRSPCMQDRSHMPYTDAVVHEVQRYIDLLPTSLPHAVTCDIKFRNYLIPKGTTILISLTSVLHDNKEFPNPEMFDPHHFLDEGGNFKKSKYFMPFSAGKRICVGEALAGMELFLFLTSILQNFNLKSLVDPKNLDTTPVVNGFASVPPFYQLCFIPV

P-gp [5] = target: T1, P-gp (Homo sapiens, UniProt P08183); experiment: In vitro substrate assessment, P-gp; type: in vitro ADME
T1 sequence (P08183 whole entry): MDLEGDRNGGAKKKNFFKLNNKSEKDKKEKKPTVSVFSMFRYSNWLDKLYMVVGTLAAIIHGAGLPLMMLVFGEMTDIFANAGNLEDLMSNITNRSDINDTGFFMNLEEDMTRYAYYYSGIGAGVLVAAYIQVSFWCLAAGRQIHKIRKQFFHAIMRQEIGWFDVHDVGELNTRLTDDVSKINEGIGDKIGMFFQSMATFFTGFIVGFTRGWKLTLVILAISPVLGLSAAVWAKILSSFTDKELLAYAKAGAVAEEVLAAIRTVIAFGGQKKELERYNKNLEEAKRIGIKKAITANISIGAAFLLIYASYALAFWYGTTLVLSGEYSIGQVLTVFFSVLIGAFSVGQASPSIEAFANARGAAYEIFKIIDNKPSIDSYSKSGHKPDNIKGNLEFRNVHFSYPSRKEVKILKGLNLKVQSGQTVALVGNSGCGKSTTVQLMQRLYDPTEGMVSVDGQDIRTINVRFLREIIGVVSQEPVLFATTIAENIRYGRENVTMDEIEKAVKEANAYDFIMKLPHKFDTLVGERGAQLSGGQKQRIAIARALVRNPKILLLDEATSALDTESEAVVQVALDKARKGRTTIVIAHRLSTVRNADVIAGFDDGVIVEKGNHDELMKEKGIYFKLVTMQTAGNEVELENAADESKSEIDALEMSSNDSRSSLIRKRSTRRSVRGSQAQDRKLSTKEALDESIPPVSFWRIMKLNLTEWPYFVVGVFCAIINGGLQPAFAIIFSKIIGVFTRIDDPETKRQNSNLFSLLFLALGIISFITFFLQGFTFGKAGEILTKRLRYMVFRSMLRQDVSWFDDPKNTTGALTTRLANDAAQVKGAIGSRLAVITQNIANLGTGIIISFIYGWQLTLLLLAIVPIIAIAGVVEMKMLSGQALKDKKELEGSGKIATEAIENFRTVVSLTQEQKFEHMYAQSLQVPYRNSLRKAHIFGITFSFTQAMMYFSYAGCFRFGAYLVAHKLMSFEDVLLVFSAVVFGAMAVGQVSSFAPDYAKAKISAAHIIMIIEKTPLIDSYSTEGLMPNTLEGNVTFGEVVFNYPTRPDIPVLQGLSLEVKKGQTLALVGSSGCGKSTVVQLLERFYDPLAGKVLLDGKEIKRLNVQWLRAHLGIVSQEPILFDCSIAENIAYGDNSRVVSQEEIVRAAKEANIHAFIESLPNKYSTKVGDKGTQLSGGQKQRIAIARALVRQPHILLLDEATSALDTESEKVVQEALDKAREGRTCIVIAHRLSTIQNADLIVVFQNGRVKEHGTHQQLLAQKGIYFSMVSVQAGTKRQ

BCRP = target: T2, BCRP (Homo sapiens, UniProt Q9UNQ0); experiment: In vitro substrate assessment, BCRP; type: in vitro ADME
T2 sequence (Q9UNQ0 1-655): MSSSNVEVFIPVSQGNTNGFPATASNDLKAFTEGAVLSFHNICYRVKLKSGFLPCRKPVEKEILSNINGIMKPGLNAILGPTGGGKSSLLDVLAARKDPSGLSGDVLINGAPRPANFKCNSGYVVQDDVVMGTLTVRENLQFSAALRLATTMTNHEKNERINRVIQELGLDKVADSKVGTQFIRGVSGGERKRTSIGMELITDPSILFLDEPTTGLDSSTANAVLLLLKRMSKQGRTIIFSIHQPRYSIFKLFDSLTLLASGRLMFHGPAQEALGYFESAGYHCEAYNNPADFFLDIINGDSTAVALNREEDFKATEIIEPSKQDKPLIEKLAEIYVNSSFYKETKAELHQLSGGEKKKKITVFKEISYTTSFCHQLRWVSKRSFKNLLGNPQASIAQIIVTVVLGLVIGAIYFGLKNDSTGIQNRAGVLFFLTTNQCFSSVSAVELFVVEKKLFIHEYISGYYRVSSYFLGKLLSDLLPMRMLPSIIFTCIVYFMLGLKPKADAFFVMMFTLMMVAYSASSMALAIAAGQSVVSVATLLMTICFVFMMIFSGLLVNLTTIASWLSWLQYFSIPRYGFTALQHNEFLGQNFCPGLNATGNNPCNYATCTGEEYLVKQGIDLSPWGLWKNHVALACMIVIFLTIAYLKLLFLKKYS

[6] = Plasma protein binding in vitro; type: in vitro ADME; conditions: human, human plasma proteins, read-out: % Bound to human plasma proteins (converted)
CYP3A = experiment: In vitro inhibition of CYP3A; type: in vitro ADME; conditions: human, did not inhibit
P-gp [7] = target: T1, P-gp; experiment: In vitro inhibition of P-gp; type: in vitro ADME; conditions: did not inhibit
[8] = target: organic anion transporter polypeptide (OATP)1B1 (Homo sapiens, UniProt Q9Y6L6); experiment: In vitro inhibition of OATP1B1; type: in vitro ADME; conditions: did not inhibit
Sequence of organic anion transporter polypeptide (OATP)1B1 (Q9Y6L6 whole entry): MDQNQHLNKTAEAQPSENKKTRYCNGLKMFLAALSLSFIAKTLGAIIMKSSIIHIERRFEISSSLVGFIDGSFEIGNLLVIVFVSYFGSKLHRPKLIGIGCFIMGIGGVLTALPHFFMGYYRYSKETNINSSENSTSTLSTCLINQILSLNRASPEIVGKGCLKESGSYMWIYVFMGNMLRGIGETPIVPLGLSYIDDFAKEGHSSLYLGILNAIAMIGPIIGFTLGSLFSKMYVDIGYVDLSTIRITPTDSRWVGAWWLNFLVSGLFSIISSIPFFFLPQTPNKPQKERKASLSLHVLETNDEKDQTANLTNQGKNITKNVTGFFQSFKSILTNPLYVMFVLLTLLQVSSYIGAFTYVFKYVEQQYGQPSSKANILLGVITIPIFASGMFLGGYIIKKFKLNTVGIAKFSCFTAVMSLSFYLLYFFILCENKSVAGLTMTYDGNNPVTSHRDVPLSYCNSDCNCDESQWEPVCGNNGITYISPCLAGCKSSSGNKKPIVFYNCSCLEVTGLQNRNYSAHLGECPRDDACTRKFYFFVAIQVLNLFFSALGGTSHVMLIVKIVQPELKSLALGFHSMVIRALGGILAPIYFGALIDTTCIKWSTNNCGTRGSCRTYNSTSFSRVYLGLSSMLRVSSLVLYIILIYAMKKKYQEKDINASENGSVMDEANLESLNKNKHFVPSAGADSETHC

CYP1A2 [9] = experiment: In vitro induction of CYP1A2; type: in vitro ADME
CYP2B6 [10] = experiment: In vitro induction of CYP2B6; type: in vitro ADME
CYP2D6 = CYP2D6 (Homo sapiens, UniProt P10635); experiment: In vitro inhibition of CYP2D6; type: in vitro ADME; conditions: did not inhibit
[11] = Bacterial reverse mutation assay
OAT3 = OAT3 (Homo sapiens, UniProt Q8TCC7); experiment: In vitro inhibition of OAT3; type: in vitro ADME
HIV-2 clinical isolates = experiment: Dolutegravir PBMC assays against HIV-2 clinical isolates; type: cell-based; conditions: Human immunodeficiency virus 2, three HIV-2 clinical isolates
[12] = Dolutegravir rat pre/post-natal development study; type: in vivo; conditions: relative to human exposure at the RHD
Excerpt: In the rat pre/post-natal development study, decreased body weight of the developing offspring was observed during lactation at a maternally toxic dose (approximately 32 times human exposure at the RHD).

CYP1A2 [13] = target: CYP1A2 (Homo sapiens, UniProt P05177); experiment: In vitro inhibition of CYP1A2; type: in vitro ADME; conditions: did not inhibit
Sequence of CYP1A2 (Homo sapiens, UniProt P05177) (P05177 whole entry): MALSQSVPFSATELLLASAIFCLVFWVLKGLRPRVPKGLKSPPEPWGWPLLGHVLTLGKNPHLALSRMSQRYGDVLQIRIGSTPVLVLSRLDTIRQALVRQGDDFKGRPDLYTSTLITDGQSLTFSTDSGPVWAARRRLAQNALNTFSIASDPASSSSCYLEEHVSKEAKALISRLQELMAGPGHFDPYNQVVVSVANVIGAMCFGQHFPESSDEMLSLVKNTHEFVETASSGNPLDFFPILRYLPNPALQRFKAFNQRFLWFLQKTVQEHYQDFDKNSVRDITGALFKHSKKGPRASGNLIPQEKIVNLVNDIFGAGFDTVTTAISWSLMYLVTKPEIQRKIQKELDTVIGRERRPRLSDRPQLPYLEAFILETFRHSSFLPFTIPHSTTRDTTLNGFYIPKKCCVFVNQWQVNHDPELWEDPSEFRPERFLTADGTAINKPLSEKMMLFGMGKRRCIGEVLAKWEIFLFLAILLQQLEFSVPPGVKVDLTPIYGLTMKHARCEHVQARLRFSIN

UGT1A3 = UGT1A3 (Homo sapiens, UniProt P35503); experiment: In vitro substrate assessment, UGT1A3; type: in vitro ADME
Sequence of UGT1A3 (P35503 29-534): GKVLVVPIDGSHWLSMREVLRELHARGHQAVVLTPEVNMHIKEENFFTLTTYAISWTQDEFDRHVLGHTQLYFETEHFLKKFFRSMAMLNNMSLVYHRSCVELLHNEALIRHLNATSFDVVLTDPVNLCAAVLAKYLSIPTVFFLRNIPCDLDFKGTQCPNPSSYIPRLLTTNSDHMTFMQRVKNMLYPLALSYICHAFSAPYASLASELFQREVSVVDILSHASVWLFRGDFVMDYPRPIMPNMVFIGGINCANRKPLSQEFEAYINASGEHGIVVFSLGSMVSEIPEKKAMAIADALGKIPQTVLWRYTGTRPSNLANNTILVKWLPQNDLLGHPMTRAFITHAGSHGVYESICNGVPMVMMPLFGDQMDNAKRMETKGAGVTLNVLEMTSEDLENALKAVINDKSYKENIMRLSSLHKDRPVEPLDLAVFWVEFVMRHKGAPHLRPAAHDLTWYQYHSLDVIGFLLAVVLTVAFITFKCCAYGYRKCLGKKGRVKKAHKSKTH

[14] = Population pharmacokinetic analyses; type: in vivo, human
[15] = Thorough QT trial in healthy subjects; type: in vivo, human
[16] = Established and other potentially significant drug interactions for dolutegravir (Table 5); type: in vivo, human
Excerpt: These recommendations are based on either drug interaction trials or predicted interactions due to the expected magnitude of interaction and potential for serious adverse events or loss of efficacy [see Contraindications (4), Clinical Pharmacology (12.3)].

[17] = target: organic anion transporter (OAT)1 (Homo sapiens, UniProt Q4U2R8); experiment: In vitro inhibition of OAT1; type: in vitro ADME
Sequence of organic anion transporter (OAT)1 (Q4U2R8 whole entry): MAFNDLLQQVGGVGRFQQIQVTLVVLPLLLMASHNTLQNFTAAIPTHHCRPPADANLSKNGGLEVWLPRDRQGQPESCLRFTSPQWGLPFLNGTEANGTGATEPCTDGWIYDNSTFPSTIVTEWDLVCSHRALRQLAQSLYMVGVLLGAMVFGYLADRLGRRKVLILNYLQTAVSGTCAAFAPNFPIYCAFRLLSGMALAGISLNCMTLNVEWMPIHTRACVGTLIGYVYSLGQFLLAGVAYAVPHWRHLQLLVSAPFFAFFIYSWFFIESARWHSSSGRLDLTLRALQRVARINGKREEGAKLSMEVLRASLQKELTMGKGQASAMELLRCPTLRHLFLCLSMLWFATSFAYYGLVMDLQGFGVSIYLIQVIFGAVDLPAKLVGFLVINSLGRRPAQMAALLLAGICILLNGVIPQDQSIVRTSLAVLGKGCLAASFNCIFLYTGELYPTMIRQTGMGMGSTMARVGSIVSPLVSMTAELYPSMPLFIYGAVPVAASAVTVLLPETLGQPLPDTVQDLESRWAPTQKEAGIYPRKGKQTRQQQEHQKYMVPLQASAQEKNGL

[18] = test system: HIV-1 with integrase substitutions; experiment: Selection of dolutegravir-resistant viruses in cell culture; type: cell-based

Sequence of UGT1A1 (P22309 26-533): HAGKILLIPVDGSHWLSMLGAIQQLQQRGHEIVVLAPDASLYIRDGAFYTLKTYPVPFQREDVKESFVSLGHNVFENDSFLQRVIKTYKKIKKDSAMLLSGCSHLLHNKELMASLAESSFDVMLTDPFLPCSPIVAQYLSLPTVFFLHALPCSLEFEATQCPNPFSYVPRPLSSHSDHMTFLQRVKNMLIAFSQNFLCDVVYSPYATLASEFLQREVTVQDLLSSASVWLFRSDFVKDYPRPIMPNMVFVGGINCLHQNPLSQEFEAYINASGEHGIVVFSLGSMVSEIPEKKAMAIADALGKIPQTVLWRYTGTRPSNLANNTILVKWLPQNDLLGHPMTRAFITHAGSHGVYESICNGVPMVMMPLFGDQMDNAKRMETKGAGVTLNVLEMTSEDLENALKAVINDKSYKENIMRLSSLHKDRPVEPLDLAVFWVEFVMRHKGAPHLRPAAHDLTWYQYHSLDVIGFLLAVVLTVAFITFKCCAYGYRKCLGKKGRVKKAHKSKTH

SMILES: C[C@@H]1CCO[C@H]2Cn3cc(C(=O)NCc4ccc(F)cc4F)c(=O)c(O)c3C(=O)N12 [Dolutegravir, dolutegravir]
- pIC50 (UGT1A1): < 4.30
- pIC50 [1]: < 4.30
- AUC exposure multiple of human (50 mg once daily) with no increases in drug-related neoplasms [2]: 17 times
- pIC50 (CYP2B6 [3]): < 4.30
- Induction of CYP3A4 (CYP3A4): did not induce
- Effects on embryo-fetal development [4]: No adverse effects
- pIC50 (CYP2C9): < 4.30
- Substrate of P-gp (P-gp [5]): substrate
- Substrate of BCRP (BCRP): substrate
- fraction unbound [6]: ~0.01
- pIC50 (CYP3A): < 4.30
- pIC50 (P-gp [7]): < 4.30
- pIC50 [8]: < 4.30
- Induction of CYP1A2 (CYP1A2 [9]): did not induce
- Induction of CYP2B6 (CYP2B6 [10]): did not induce
- pIC50 (CYP2D6): < 4.30
- Genotoxicity, bacterial reverse mutation assay [11]: not genotoxic
- pIC50 (OAT3): 5.71
- pEC50 (HIV-2 clinical isolates): 9.21 to 10.05
- Exposure multiple of maternally toxic dose with decreased body weight of developing offspring during lactation [12]: approximately 32 times
- pIC50 (CYP1A2 [13]): < 4.30
- Substrate of UGT1A3 (UGT1A3): substrate
- Effect of age on pharmacokinetics ([14]; in vivo): no clinically relevant effect
- Effect of gender and race on pharmacokinetics ([14]; studies with the individual components): no clinically relevant effect
- Maximum mean QTc change (QTcF) ([15]; dolutegravir 250-mg suspension single dose, baseline and placebo adjusted): 2.4 ms
- QTc interval prolongation ([15]; over 24 hours postdose): did not prolong
- Effect on Concentration of dolutegravir ([16]; concomitant Carbamazepine): ↓Dolutegravir
- Effect on Concentration of dolutegravir ([16]; concomitant Oxcarbazepine, Phenytoin, Phenobarbital, trial or predicted interaction): ↓Dolutegravir
- Effect on Concentration of dolutegravir ([16]; concomitant Rifampin): ↓Dolutegravir
- Effect on Concentration of dolutegravir ([16]; concomitant St. John's wort (Hypericum perforatum), trial or predicted interaction): ↓Dolutegravir
- Effect on Concentration of dolutegravir ([16]; concomitant medications containing polyvalent cations (antacids, laxatives, sucralfate, buffered medications)): ↓Dolutegravir
- Effect on Concentration of dolutegravir ([16]; concomitant oral calcium and iron supplements, including multivitamins): ↓Dolutegravir
- pIC50 [17]: 5.67
- Decreased susceptibility to dolutegravir ([18]; G118R): 10 fold
- Decreased susceptibility to dolutegravir ([18]; substitutions E92Q, S153F or Y, G193E or R263K): up to 4 fold
